Measured values as given in PMC5242521 (PLoS ONE, 2017).
“And” between values parts separate entries of the source, which are not always exact repeats. Equal values may be shown once. “Also recorded” adds a separate entry of the source.

Assays:
[1] = target: P-gp (Homo sapiens, UniProt P08183); assay: P-gp activity: rhodamine 123 accumulation in MCF7R cells; details: pyrethroid 100 μM
Experimental: (§1) The effects of pyrethroids on activity of ABC and SLC transporters were determined through measuring cellular accumulation or retention of fluorescent or radiolabeled reference substrates for transporters, in the presence or absence of reference inhibitors, as previously described. The nature of cells and reference substrates and inhibitors used for transport assays are summarized in S3 Table.
For accumulation assays (performed for all transporters, excepted BCRP), transporter-expressing cells usually cultured in 48-well plates were first incubated at 37°C with reference substrates in the absence (control) or presence of pyrethroids or reference inhibitors, in a well-defined transport assay medium, consisting of 136 mM NaCl, 5.3 mM KCl, 1.1mM KH2PO4, 0.8 mM MgSO4, 1.8 mM CaCl2, 10 mM HEPES, 11 mM D-glucose and adjusted to pH = 7.4 (excepted for MATE transporter assays, for which pH was set to 8.4). The nature of substrates and reference inhibitors and the incubation times with substrates, that varied according to the transporter, were selected in agreement with previous studies and are indicated in S3 Table. The total incubation volume with substrates was 200 μL/well. After washing twice in phosphate-buffered saline (PBS) (200 μL/well/washing), cells were lysed in distilled water (155 μL/well). An aliquot of cell lysate (5 μL) was then taken for determining cellular protein content by the Bradford method. The rest of lysate (150 μL/well) was used for measuring intracellular accumulation of reference substrates by scintillation counting or spectrofluorimetry using a SpectraMax Gemini SX spectrofluorometer (Molecular Devices, Sunnyvale, CA, USA) (excitation and emission wavelengths were 485 and 535 nm, respectively, for rhodamine 123 and fluorescein, and 355 and 460 nm, respectively, for DAPI).
(§2) Intracellular concentrations of reference substrates were initially expressed as fluorescence arbitrary units (for fluorescent dye substrates) or as moles (for radiolabeled substrates) and normalized to cellular protein content, determined by the Bradford method. They were finally used for calculating percentage of transporter activity, according to the following equations [41, 45]: %ABCtransporter activity=([Substrateref inh]-[Substratepyrethroid])×100/([Substrateref inh]-[Substratecontrol]) (1) %SLC transporter activity=([Substratepyrethroid]-[Substratref inh])×100/([Substratecontrol]-[Substrateref inh]) (2) with [Substratepyrethroid] = cellular concentration of reference substrate in the presence of pyrethroid, [Substrateref inh] = cellular concentration of reference substrate in the presence of reference inhibitor and [Substratecontrol] = cellular concentration of reference substrate in control cells not exposed to pyrethroid or reference inhibitor.
(§3) The initial tested concentration of pyrethroids was 100 μM. […] Such concentrations were calculated using GraphPad Prism software (GraphPad Software, La Jolla, CA), through nonlinear regression based on the four parameter logistic function using the following equations: […]

[2] = tested on: P-gp; details: ref [78]; cited from earlier work
[3] = target: T1, OCT1 (Homo sapiens, UniProt O15245); assay: OCT1 activity: DAPI accumulation in HEK-OCT1 cells; details: for inhibition at 100 μM: human, pH 7.4
T1 sequence (O15245 1-554): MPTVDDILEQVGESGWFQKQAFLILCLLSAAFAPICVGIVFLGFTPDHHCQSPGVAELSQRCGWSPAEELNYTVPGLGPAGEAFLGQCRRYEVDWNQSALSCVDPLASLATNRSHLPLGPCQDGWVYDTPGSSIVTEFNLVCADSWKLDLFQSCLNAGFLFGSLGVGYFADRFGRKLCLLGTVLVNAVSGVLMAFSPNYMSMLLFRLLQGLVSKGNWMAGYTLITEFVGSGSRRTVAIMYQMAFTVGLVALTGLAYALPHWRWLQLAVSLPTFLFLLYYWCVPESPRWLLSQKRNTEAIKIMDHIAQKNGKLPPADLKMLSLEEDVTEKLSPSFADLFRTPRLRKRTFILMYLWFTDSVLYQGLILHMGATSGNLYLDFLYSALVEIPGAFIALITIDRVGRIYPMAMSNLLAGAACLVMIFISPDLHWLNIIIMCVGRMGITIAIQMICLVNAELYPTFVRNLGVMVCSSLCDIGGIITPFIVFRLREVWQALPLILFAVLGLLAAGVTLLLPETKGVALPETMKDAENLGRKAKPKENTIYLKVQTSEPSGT
Experimental: as §1
The nature of substrates and reference inhibitors and the incubation times with substrates, that varied according to the transporter, were selected in agreement with previous studies and are indicated in S3 Table. The total incubation volume with substrates was 200 μL/well. […] An aliquot of cell lysate (5 μL) was then taken for determining cellular protein content by the Bradford method.
as §2, §3

[4] = set-up: method as in PMID 12708229; details: human subjects environmentally exposed; ref [70]; cited from earlier work
[5] = target: T2, OATP1B1 (Homo sapiens, UniProt Q9Y6L6); assay: OATP1B1 activity: E3S accumulation in CHO-OATP1B1 cells; format: cell-based; details: pyrethroid 100 μM; CHO-OATP1B1 cells, E3S
T2 construct: expressed in transfected cells; host or cells: CHO
T2 sequence (Q9Y6L6 1-691): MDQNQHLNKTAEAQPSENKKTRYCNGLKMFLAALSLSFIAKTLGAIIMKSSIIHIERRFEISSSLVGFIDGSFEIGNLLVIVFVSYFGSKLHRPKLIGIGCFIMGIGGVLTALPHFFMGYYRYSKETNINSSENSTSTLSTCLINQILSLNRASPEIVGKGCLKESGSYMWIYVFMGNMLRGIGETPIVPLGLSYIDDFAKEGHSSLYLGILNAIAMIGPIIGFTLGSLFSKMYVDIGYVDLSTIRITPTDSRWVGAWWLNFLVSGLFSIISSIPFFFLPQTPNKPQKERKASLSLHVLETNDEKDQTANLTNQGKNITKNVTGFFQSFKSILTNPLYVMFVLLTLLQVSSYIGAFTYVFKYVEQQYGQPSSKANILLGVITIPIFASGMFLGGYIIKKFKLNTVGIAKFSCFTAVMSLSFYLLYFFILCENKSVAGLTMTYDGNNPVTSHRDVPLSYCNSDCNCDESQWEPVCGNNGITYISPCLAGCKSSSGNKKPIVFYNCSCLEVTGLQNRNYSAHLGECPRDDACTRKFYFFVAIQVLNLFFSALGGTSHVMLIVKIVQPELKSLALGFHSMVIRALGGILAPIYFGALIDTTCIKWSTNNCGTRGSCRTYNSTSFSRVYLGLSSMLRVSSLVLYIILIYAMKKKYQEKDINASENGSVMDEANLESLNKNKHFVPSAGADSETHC
Experimental: (§4) The initial tested concentration of pyrethroids was 100 μM.

[6] = tested on: P-gp; details: ref [26], [27]; cited from earlier work
[7] = tested on: BCRP ATPase activity; details: ref [28]; cited from earlier work
[8] = target: T3, BCRP (Homo sapiens, UniProt Q9UNQ0); assay: BCRP activity: Hoechst 33342 retention in HEK-BCRP cells; format: cell-based; details: pyrethroid 100 μM
T3 construct: expressed in transfected cells; host or cells: HEK293
T3 sequence (Q9UNQ0 1-655): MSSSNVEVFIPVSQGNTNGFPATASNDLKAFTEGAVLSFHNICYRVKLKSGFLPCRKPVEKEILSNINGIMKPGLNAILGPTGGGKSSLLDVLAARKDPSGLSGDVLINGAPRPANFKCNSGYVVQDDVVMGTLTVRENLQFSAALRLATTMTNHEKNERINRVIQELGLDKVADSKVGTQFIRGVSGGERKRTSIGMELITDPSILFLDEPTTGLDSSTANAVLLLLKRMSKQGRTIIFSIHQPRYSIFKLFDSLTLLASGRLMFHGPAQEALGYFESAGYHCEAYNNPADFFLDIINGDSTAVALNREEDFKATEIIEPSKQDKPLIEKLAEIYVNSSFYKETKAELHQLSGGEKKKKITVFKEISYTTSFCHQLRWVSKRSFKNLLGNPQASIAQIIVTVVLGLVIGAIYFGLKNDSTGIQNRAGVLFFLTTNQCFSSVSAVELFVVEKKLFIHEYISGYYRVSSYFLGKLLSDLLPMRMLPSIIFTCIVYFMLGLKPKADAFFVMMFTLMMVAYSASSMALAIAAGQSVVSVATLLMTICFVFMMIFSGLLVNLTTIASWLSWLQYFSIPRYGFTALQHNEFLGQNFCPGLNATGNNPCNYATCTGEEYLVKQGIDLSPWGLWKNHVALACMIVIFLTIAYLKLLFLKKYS
Experimental: For retention assay (used for BCRP activity), HEK-BCRP cells cultured in 48-well plates were first loaded at 37°C with transport assay (200 μL/well) containing 16.2 μM Hoechst 33342 for 30 min. After washing twice in PBS (200 μL/well/washing), cells were reincubated in Hoechst 33342-free transport assay medium (200 μL/well) at 37°C for 90 min in the absence or presence of pyrethroids or of the BCRP reference inhibitor fumitremorgin C used at 10 μM. Cells were next lysed in distilled water (155 μL/well) after washing twice in PBS (200 μL/well/washing). The cell lysate was finally used for determining cellular protein content and intracellular retention of Hoechst 33342 (by spectrofluorimetry: excitation and emission wavelengths were 355 and 460 nm, respectively), as described above.
as §4

Sequence of P-gp (Homo sapiens, UniProt P08183) (P08183 whole entry): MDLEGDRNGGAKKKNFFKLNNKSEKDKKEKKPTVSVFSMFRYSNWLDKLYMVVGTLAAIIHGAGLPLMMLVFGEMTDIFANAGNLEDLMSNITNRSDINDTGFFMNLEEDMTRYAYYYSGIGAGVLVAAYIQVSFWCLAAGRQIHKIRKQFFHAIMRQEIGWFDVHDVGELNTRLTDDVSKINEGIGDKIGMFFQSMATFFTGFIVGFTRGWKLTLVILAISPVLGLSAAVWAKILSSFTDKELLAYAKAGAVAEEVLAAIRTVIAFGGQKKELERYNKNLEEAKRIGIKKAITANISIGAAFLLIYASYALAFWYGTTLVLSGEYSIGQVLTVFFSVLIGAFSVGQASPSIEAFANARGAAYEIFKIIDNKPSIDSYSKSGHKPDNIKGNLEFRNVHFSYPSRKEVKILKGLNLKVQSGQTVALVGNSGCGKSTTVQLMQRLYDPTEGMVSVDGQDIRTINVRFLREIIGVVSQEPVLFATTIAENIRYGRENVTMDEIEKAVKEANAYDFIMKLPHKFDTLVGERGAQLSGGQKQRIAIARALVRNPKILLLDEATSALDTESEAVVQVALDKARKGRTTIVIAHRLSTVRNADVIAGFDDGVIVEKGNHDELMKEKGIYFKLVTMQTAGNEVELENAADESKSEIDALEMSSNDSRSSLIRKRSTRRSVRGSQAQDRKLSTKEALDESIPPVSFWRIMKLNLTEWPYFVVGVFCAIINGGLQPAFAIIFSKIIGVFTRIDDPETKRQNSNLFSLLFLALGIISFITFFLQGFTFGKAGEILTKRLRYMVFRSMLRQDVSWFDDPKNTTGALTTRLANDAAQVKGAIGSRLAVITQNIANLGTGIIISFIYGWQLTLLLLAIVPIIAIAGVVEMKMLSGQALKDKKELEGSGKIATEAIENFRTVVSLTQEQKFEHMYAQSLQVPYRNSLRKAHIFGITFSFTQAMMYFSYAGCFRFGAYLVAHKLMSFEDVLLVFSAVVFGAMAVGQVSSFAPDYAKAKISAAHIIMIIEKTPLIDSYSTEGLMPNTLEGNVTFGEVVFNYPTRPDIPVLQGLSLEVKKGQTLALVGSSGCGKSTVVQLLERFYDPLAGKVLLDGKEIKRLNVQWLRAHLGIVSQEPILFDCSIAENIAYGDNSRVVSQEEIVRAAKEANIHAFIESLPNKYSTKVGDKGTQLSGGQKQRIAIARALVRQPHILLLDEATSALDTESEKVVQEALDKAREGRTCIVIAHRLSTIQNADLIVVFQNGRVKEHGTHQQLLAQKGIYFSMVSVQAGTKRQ

SMILES	effect on P-gp activity [1]	efflux by P-gp [2]	inhibition at 100 μM [3]	blood concentration [4]	inhibition of OATP1B1 activity [5]	effect on OCT1 activity ([3]; pyrethroid 100 μM, DAPI)	effect on P-gp activity or ATPase activity [6]	effect on BCRP ATPase activity [7]	effect on BCRP activity [8]
CC1(C)[C@H](C(=O)O[C@H](C#N)c2cccc(Oc3ccccc3)c2)[C@@H]1C=C(Br)Br [deltamethrin]	did not inhibit	not effluxed by P-gp	30.1 to 48.8%	< 5 μg/L and < 12.8 nM	–	–	–	–	–
CC(C)[C@H](C(=O)O[C@H](C#N)c1cccc(Oc2ccccc2)c1)c1ccc(Cl)cc1 [esfenvalerate]	did not alter	–	–	–	less than 50%	failed to significantly alter	inhibit	–	–
CC1(C)C(C=C(Cl)Cl)C1C(=O)OCc1cccc(Oc2ccccc2)c1 (stereo not shown) [permethrin]	did not alter	–	–	< 5 μg/L and < 12.8 nM	–	–	inhibit	blocked; also recorded: inhibited	without inhibiting
CC(C)=CC1C(C(=O)OCc2coc(Cc3ccccc3)c2)C1(C)C (stereo not shown) [resmethrin]	–	–	48.8%	–	–	–	–	inhibited	without inhibiting
